This note sets out measurements from publication PMC11421850, “Identification of pharmacological inducers of a reversible hypometabolic state for whole organ preservation” (eLife, 2024).

In the assay the target is T1, delta opioid receptor (DOR) (Homo sapiens, UniProt P41143).
T1 construct: gene OPRD1
The assay is described as follows: biochemical.

T1 sequence (P41143 whole entry): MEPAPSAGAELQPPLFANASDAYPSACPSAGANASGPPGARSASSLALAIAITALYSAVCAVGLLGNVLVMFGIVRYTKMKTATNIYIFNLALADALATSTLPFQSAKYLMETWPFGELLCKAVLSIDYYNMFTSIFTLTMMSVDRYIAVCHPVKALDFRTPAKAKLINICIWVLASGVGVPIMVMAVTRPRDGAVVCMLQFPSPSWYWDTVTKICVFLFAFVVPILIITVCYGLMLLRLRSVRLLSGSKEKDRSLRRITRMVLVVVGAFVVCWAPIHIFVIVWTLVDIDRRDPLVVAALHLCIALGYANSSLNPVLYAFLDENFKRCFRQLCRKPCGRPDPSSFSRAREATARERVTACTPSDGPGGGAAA

`CCN(CC)C(=O)c1ccc([C@H](c2cccc(OC)c2)N2C[C@@H](C)OC[C@@H]2C)cc1` [WB3] registered an IC50 of 3.47 µM. This counts as single-digit micromolar.
